Target: T1, human mAChR M4 (Homo sapiens, UniProt P08173)
T1 construct: expressed in transfected cells; host or cells: CHO-K1 (ATCC), stably expressing hM4 and Gqi5
T1 sequence (P08173 1-479): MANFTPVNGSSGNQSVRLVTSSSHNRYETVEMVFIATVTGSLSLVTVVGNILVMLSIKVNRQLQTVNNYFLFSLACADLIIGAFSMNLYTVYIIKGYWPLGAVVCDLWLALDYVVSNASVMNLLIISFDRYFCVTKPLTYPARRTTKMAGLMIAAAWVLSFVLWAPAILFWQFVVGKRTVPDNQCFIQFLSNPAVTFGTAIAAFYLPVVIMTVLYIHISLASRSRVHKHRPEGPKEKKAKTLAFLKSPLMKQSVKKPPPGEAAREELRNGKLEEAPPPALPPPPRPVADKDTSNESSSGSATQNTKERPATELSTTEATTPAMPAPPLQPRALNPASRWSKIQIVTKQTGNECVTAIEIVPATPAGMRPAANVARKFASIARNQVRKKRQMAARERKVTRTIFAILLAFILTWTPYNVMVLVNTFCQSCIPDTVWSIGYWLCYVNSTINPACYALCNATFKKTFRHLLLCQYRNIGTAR
Experiment: mAChR M4 cell-based functional assay: calcium flux (Fluo-4, FDSS), positive allosteric modulator activity on the EC20 acetylcholine response, hM4-Gqi5 CHO-K1 cells
Conditions: for Emax at 30 µM: CHO-K1, human M4, % ACh maximum at 30 μM; for EC50: human M4, PAM activity on EC20 acetylcholine response, calcium flux, read-out: Human M4 EC50
In short: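 Potentiation was taken as the concentration-dependent rise in the EC20 acetylcholine calcium response, fitted by a four-parameter logistic with EC20 as baseline. Fluo-4-loaded hM4-Gqi5 CHO-K1 cells received 11-point, threefold-diluted compound before acetylcholine at 144 s; FDSS read at 1 Hz.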

SMILES | Emax at 30 µM [%] | EC50 [µM]
Cc1nc(N2CCc3ncc(C(C)(O)C(F)(F)F)cc3C2)c2cc(Cl)ccc2n1 (centres unmarked) [Compound 291, 2-(6-(6-chloro-2-methylquinazolin-4-yl)-5,6,7,8-tetrahydro-1,6-naphthyridin-3-yl)-1,1,1-trifluoropropan-2-ol] | 97 | 0.4
Cc1nc(N2CCc3ncc(-c4ccccc4C)cc3C2)c2cc(F)ccc2n1 [Compound 294, 6-fluoro-2-methyl-4-(3-(o-tolyl)-7,8-dihydro-1,6-naphthyridin-6(5H)-yl)quinazoline] | 68 | 1.63
COc1ccc2ncnc(N3CCc4ncc(-c5ccccc5C)cc4C3)c2c1 [Compound 296, 6-methoxy-4-(3-(o-tolyl)-7,8-dihydro-1,6-naphthyridin-6(5H)-yl)quinazoline] | 102 | 1.37
Cc1nc(N2CCc3ncc(-c4ccccc4C)cc3C2)c2cc(Cl)ccc2n1 [Compound 302, 6-chloro-2-methyl-4-(3-(o-tolyl)-7,8-dihydro-1,6-naphthyridin-6(5H)-yl)quinazoline] | 94 | 5.37
Cc1nc(N2CCc3ncc(-c4cnc(F)cc4C)cc3C2)c2cc(F)ccc2n1 [Compound 305, 6-fluoro-4-(3-(6-fluoro-4-methylpyridin-3-yl)-7,8-dihydro-1,6-naphthyridin-6(5H)-yl)-2-methylquinazoline] | 92 | 0.13
Cc1nc(N2CCc3ncc(-c4cc(F)c(F)cc4C)cc3C2)c2cc(F)ccc2n1 [Compound 307, 4-(3-(4,5-difluoro-2-methylphenyl)-7,8-dihydro-1,6-naphthyridin-6(5H)-yl)-6-fluoro-2-methylquinazoline] | 54 | 3.73
COc1ccc2ncnc(N3CCc4ncc(-c5cnc(F)cc5C)cc4C3)c2c1 [Compound 308, 4-(3-(6-fluoro-4-methylpyridin-3-yl)-7,8-dihydro-1,6-naphthyridin-6(5H)-yl)-6-methoxyquinazoline] | 71 | 0.11
Cc1ccc2ncnc(N3CCc4ncc(-c5cnc(F)cc5C)cc4C3)c2c1 [Compound 309, 4-(3-(6-fluoro-4-methylpyridin-3-yl)-7,8-dihydro-1,6-naphthyridin-6(5H)-yl)-6-methylquinazoline] | 83 | 0.04
Cc1cc(F)ncc1-c1cnc2c(c1)CN(c1ncnc3ccc(Cl)cc13)CC2 [Compound 310, 6-chloro-4-(3-(6-fluoro-4-methylpyridin-3-yl)-7,8-dihydro-1,6-naphthyridin-6(5H)-yl)quinazoline] | 86 | 0.06
Cc1nc(N2CCc3ncc(-c4cnc(F)cc4C)cc3C2)c2cc(Cl)ccc2n1 [Compound 311, 6-chloro-4-(3-(6-fluoro-4-methylpyridin-3-yl)-7,8-dihydro-1,6-naphthyridin-6(5H)-yl)-2-methylquinazoline] | 77 | 0.18
COc1ccc2nc(C)nc(N3CCc4ncc(-c5cnc(F)cc5C)cc4C3)c2c1 [Compound 312, 4-(3-(6-fluoro-4-methylpyridin-3-yl)-7,8-dihydro-1,6-naphthyridin-6(5H)-yl)-6-methoxy-2-methylquinazoline] | 76 | 0.15
COc1ccc2nc(C)nc(N3CCc4ncc(-c5cc(F)ccc5C)cc4C3)c2c1 [Compound 313, 4-(3-(5-fluoro-2-methylphenyl)-7,8-dihydro-1,6-naphthyridin-6(5H)-yl)-6-methoxy-2-methylquinazoline] | 52 | 4.36
COc1ccc2nc(C)nc(N3CCc4ncc(-c5ccccc5C)cc4C3)c2c1 [Compound 314, 6-methoxy-2-methyl-4-(3-(o-tolyl)-7,8-dihydro-1,6-naphthyridin-6(5H)-yl)quinazoline] | 77 | 4.67
Fc1ccc2ncnc(N3CCc4ncc(Nc5ccncc5F)cc4C3)c2c1 [Compound 315, N-(3-fluoropyridin-4-yl)-6-(6-fluoroquinazolin-4-yl)-5,6,7,8-tetrahydro-1,6-naphthyridin-3-amine] | 81 | 0.01

Next, values leading:

Emax at 30 µM [%] | EC50 [µM] | SMILES
79 | 0.66 | Cc1ccccc1-c1cnc2c(c1)CN(c1ncnc3ccc(F)cc13)CC2 [Compound 292, 6-fluoro-4-(3-(o-tolyl)-7,8-dihydro-1,6-naphthyridin-6(5H)-yl)quinazoline]
80 | 0.74 | Cc1ccc(F)cc1-c1cnc2c(c1)CN(c1ncnc3ccc(F)cc13)CC2 [Compound 293, 6-fluoro-4-(3-(5-fluoro-2-methylphenyl)-7,8-dihydro-1,6-naphthyridin-6(5H)-yl)quinazoline]
85 | 2.63 | Cc1nc(N2CCc3ncc(-c4cc(F)ccc4C)cc3C2)c2cc(F)ccc2n1 [Compound 295, 6-fluoro-4-(3-(5-fluoro-2-methylphenyl)-7,8-dihydro-1,6-naphthyridin-6(5H)-yl)-2-methylquinazoline]
101 | 1.55 | COc1ccc2ncnc(N3CCc4ncc(-c5cc(F)ccc5C)cc4C3)c2c1 [Compound 297, 4-(3-(5-fluoro-2-methylphenyl)-7,8-dihydro-1,6-naphthyridin-6(5H)-yl)-6-methoxyquinazoline]
100 | 1.3 | Cc1ccc2ncnc(N3CCc4ncc(-c5ccccc5C)cc4C3)c2c1 [Compound 298, 6-methyl-4-(3-(o-tolyl)-7,8-dihydro-1,6-naphthyridin-6(5H)-yl)quinazoline]
94 | 1.2 | Cc1ccc2ncnc(N3CCc4ncc(-c5cc(F)ccc5C)cc4C3)c2c1 [Compound 299, 4-(3-(5-fluoro-2-methylphenyl)-7,8-dihydro-1,6-naphthyridin-6(5H)-yl)-6-methylquinazoline]
96 | 3.6 | Cc1ccccc1-c1cnc2c(c1)CN(c1ncnc3ccc(Cl)cc13)CC2 [Compound 300, 6-chloro-4-(3-(o-tolyl)-7,8-dihydro-1,6-naphthyridin-6(5H)-yl)quinazoline]
94 | 3.06 | Cc1ccc(F)cc1-c1cnc2c(c1)CN(c1ncnc3ccc(Cl)cc13)CC2 [Compound 301, 6-chloro-4-(3-(5-fluoro-2-methylphenyl)-7,8-dihydro-1,6-naphthyridin-6(5H)-yl)quinazoline]
91 | 9.2 | Cc1nc(N2CCc3ncc(-c4cc(F)ccc4C)cc3C2)c2cc(Cl)ccc2n1 [Compound 303, 6-chloro-4-(3-(5-fluoro-2-methylphenyl)-7,8-dihydro-1,6-naphthyridin-6(5H)-yl)-2-methylquinazoline]
95 | 0.08 | Cc1cc(F)ncc1-c1cnc2c(c1)CN(c1ncnc3ccc(F)cc13)CC2 [Compound 304, 6-fluoro-4-(3-(6-fluoro-4-methylpyridin-3-yl)-7,8-dihydro-1,6-naphthyridin-6(5H)-yl)quinazoline]
69 | 5.5 | Cc1cc(F)c(F)cc1-c1cnc2c(c1)CN(c1ncnc3ccc(F)cc13)CC2 [Compound 306, 4-(3-(4,5-difluoro-2-methylphenyl)-7,8-dihydro-1,6-naphthyridin-6(5H)-yl)-6-fluoroquinazoline]

— patent publication US20250026752A1, “POSITIVE ALLOSTERIC MODULATORS OF THE MUSCARINIC ACETYLCHOLINE RECEPTOR M4” (Vanderbilt University, priority 2021, published 2025)
